In patent US20230346831A1, “METHODS FOR TREATING […] USING LOW DOSE CARBON MONOXIDE” (priority 2020, published 2023):

What was measured:
HCP1 = test: quantitative real-time reverse transcription PCR; assay type: cell-based, human; details: MCF7/TGL and MDA-MB-231/TGL cells; 250 ppm CO
Experimental: (§1) mRNA was isolated from cells (MCF7/TGL and MDA-MB-231/TGL) grown on 6-cm dishes using RNeasy mini kit (Qiagen, Hilden, Germany) containing gDNA Eliminator spin columns. cDNA was generated using the SuperScript III First-strand synthesis system with random hexamers (Invitrogen, Carlsbad, CA), and power SYBR green (Invitrogen, Carlsbad, CA)-based quantitative real-time PCR was performed using primer specific for HRG1 (human, forward: 5′- […] -3′ (SEQ ID NO: 1), reverse: 5′- […] -3′ (SEQ ID NO: 2)) or HCP1 (human forward: 5′- […] -3′ (SEQ ID NO: 3), reverse: 5′-[…] -3′ (SEQ ID NO: 4)), CYP1B1 (human, forward: 5′TGAGTGCCGTGTGTTTCGG -3′ (SEQ ID NO: 5), reverse: 5′-[…] -3′ (SEQ ID NO: 6)), SP1 (human, forward: 5′-GTGGCCGCTACCTTCACTG -3′ (SEQ ID NO: 7), reverse: 5′-GCCCCACTCCTACTTGGTC -3′ (SEQ ID NO: 8)) with the comparative CT method (ΔΔCT; ABI).
(§2) To investigate how CO reduces heme levels, whether CO decreased the transportation of heme into the cytosol was examined. […] Furthermore, heme oxygenases (HO-1, HO-2, and HO-3) cleave heme into 3 products: CO, ferrous ions (Fe2+), and biliverdin. […] Likewise, changes in protein levels of Bach 1 (a physiological repressor of HO-1 and a pro-metastatic transcription factor, whose degradation is reported to be mediated by heme in Nrf2-mutated lung cancer) was not detected (FIG. 4E). […]

HRG1 = test: quantitative real-time reverse transcription PCR; assay type: cell-based, human; details: MCF7/TGL and MDA-MB-231/TGL cells; 250 ppm CO
Experimental: as §1, §2

[C-]#[O+] [CO, Carbon monoxide]
HCP1 mRNA expression (HCP1): reduced | HRG1 mRNA expression (HRG1): reduced
